The source of these data is ChEMBL document CHEMBL1201862, “PubChem BioAssay data set” (2004).

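Five concentrations, 48 hours, 96-well plates. GI50 marks 50% less growth.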 The source made the active and inactive calls. No stated cut-off is given here; in the data, active = GI50 up to about 1.1 µM and inactive = higher. Bounds are passed on as bounds.

Among the test systems are OVCAR-4; HCT-116; MDA-N; U-251; SN12C; COLO 205; MDA-MB-231; PC-3; IGROV-1; UACC-62; HOP-62; TK-10; NCI-H522; NCI-H460; HCT-15; SNB-75; SF-295; MCF7; BT-549; NCI-H23.
Common to all, as to assay: NCI anticancer screen, dose series, 48 h

On to `COc1ccc(C2C(=O)c3ccc(OC)cc3OC2c2cccnc2)cc1` (stereo not given), for which the GI50 in the experiment with OVCAR-4 was > 100 µM (inactive); in the experiment with HCT-116, > 100 µM (inactive); with MDA-N it was > 100 µM (inactive); with U-251, 70.3 µM (inactive); in the experiment on SN12C, > 100 µM (inactive); with COLO 205, > 100 µM (inactive). For the same molecule, the GI50 in the experiment with MDA-MB-231 was > 100 µM (inactive); in the experiment with PC-3 it was > 100 µM (inactive); in the experiment with IGROV-1, > 100 µM (inactive); with UACC-62, > 100 µM (inactive); with HOP-62, 33.2 µM (inactive); in the experiment with TK-10, 46.7 µM (inactive). For the same molecule, the GI50 was > 100 µM (inactive) in the experiment with NCI-H522; > 100 µM (inactive) in the experiment on NCI-H460; above 100 µM in the experiment on HCT-15; 34.8 µM (inactive) in the experiment on SNB-75; 46.6 µM (inactive) in the experiment with SF-295; > 100 µM (inactive) with MCF7. Further, the GI50 is 49.9 µM (inactive) in the experiment on BT-549 and > 100 µM (inactive) in the experiment with NCI-H23.
